# In patent US10584124B2, “Crystalline forms” (Array BioPharma Inc., priority 2017, dated 2020):
# Read-outs that look alike come from different tables or passages of the source.
# Key:
# [1] = Isothermic (25° C.) DVS analysis of salts of the compound of Formula I; type: physicochemical
# Excerpt: (FIG. 16D). […] Some hysteresis was observed. […] (FIG. 16C). […] (FIG. 16D).
# (FIG. 18A). […] (FIG. 18B). […] Some hysteresis was observed. […] An overlay of FTIR spectra of the L- and D-malic acid salts is shown in FIG. 18F. ^1H NMR spectra of the L- and D-malic salts in DMSO-d^6 are shown in FIG. 18G-18H, respectively.
# [2] = Stability screening of freebase and selected salts of Formula I, 40° C. and 75% RH, weekly HPLC over 4 weeks
# [3] = Solubility test of the D-malic acid salt (room temperature, 60° C., 70° C.); type: physicochemical; settings: for Solids dissolve at 70° C.?: 70° C. for approximately 3.0 hours
# [4] = GVS hygroscopicity; type: physicochemical
# Excerpt: The instruments and methods of analysis used in the polymorph screens described in Examples 5 are described in Example 4, above.
structure (smiles),measurement,setting,value
COc1ccc(CN2CCN(c3ccc(-c4cc(-c5cnn(C)c5)cn5ncc(C#N)c45)cn3)CC2)cn1.O=C(O)C[C@@H](O)C(=O)O [D-malic acid salt],Mass gain by DVS,"[1]; 80% relative humidity, 25° C.",approximately 2.8%
same,Hygroscopicity by DVS (in words),[1]; isothermic 25° C.,hygroscopic
same,Deliquescence upon removal from the DVS chamber,[1]; sample remained a free-flowing powder,no observable deliquescence
same,Absolute % change,"[2]; 40° C. and 75% RH, T = 0 to 4 weeks",0.6%
same,"Stability, HPLC analysis, T = 1 week","[2]; stored at 40° C. and 75% RH, 1 week",97.6%
same,"Stability, HPLC analysis, T = 2 weeks","[2]; stored at 40° C. and 75% RH, 2 weeks",97.4%
same,"Stability, HPLC analysis, T = 3 weeks","[2]; stored at 40° C. and 75% RH, 3 weeks",97.2%
same,"Stability, HPLC analysis, T = 4 weeks","[2]; stored at 40° C. and 75% RH, 4 weeks",97.1%
same,"Stability, HPLC analysis, T = 0","[2]; stored at 40° C. and 75% RH, T = 0",97.7%
same,Solids dissolve at 60° C.?,"[3]; 60° C. for 3.0 hours, solvent 0.1M HCl, Yes",Yes (>15 mg/mL)
same,Solids dissolve at 60° C.?,"[3]; 60° C. for 3.0 hours, solvent 2-methyl THF",No
same,Solids dissolve at 60° C.?,"[3]; 60° C. for 3.0 hours, solvent ACN",No
same,Solids dissolve at 60° C.?,"[3]; 60° C. for 3.0 hours, solvent Acetone",No
same,Solids dissolve at 60° C.?,"[3]; 60° C. for 3.0 hours, solvent DCE",No
same,Solids dissolve at 60° C.?,"[3]; 60° C. for 3.0 hours, solvent DMSO, Yes",Yes (>40 mg/mL)
same,Solids dissolve at 60° C.?,"[3]; 60° C. for 3.0 hours, solvent EtOAc",No
same,Solids dissolve at 60° C.?,"[3]; 60° C. for 3.0 hours, solvent EtOH",No
same,Solids dissolve at 60° C.?,"[3]; 60° C. for 3.0 hours, solvent IPA",No
same,Solids dissolve at 60° C.?,"[3]; 60° C. for 3.0 hours, solvent MEK",No
same,Solids dissolve at 60° C.?,"[3]; 60° C. for 3.0 hours, solvent MTBE",No
same,Solids dissolve at 60° C.?,"[3]; 60° C. for 3.0 hours, solvent MeOH",No
same,Solids dissolve at 60° C.?,"[3]; 60° C. for 3.0 hours, solvent Toluene",No
same,Solids dissolve at 60° C.?,"[3]; 60° C. for 3.0 hours, solvent iPAc",No
same,Solids dissolve at 60° C.?,"[3]; 60° C. for 3.0 hours, solvent water",No
same,Solids dissolve at 70° C.?,[3]; solvent 2-methyl THF,No
same,Solids dissolve at 70° C.?,[3]; solvent ACN,No
same,Solids dissolve at 70° C.?,[3]; solvent DCE,No
same,Solids dissolve at 70° C.?,"[3]; solvent DMSO, Yes",Yes (>56 mg/mL)
same,Solids dissolve at 70° C.?,[3]; solvent EtOAc,No
same,Solids dissolve at 70° C.?,[3]; solvent EtOH,No
same,Solids dissolve at 70° C.?,[3]; solvent IPA,No
same,Solids dissolve at 70° C.?,[3]; solvent MEK,No
same,Solids dissolve at 70° C.?,[3]; solvent MTBE,No
same,Solids dissolve at 70° C.?,[3]; solvent Toluene,No
same,Solids dissolve at 70° C.?,[3]; solvent iPAc,No
same,Solids dissolve at 70° C.?,[3]; solvent water,No
same,Solids dissolve at 60° C.?,"[3]; solvent THF, cell says At 65° C.",~10 mg/mL
COc1ccc(CN2C3CC2CN(c2ccc(-c4cc(OCC(C)(C)O)cn5ncc(C#N)c45)cn2)C3)cn1 [Form 1],Hygroscopicity by GVS (in words),[4],moderately hygroscopic
same,Weight increase by GVS,[4]; at 90% RH,2.6%
COc1ccc(CN2C3CC2CN(c2ccc(-c4cc(OCC(C)(C)O)cn5ncc(C#N)c45)cn2)C3)cn1.O=P(O)(O)O [phosphate salt],Hygroscopicity by GVS (in words),[4],highly hygroscopic
same,Weight increase by GVS,[4],approximately 14%
same,Form and crystallinity by XRPD after 7-day stability tests,"ambient temperature and light, 40° C./75% RH, 80° C.",no change in form or crystallinity
same,Purity after 7-day stability storage,stored 7 days at 40° C./75% RH,97.44%
same,Purity after 7-day stability storage,stored 7 days at 80° C.,64.96%
same,Purity after 7-day stability storage,stored 7 days at RT (ambient temperature and light),98.03%
